Target: Epidermal growth factor receptor (Homo sapiens, UniProt P00533)
Assay: Inhibition Assay
Experimental: The concentration of DMSO after addition of the compound prepared in the above examples of the present invention (i.e., the compound to be tested) was 2 vol %.The working concentrations of each component in 10 μL wild-type EGER kinase reaction system were: 10 μM ATP, 0.8 ng/μL wild-type EGFR kinase, 2 μM Tyr04 substrate (Invitrogen, PV3193). The concentration of DMSO after addition of the compound to be tested was 2 vol %.10 mM drug stock solution was dissolved at room temperature and diluted to a final concentration of 4-0.002 μM with 8 vol % DMSO solution. […] Then 2.5 μl of ATP was added to initiate the reaction. Wherein, ATP was replaced by the reaction buffer in C1 well, no drug was added to C2 well, and the phosphorylated substrate was added to C3 well according to the instructions. The mixture was allowed to react at 25° C. in a shaker in dark for 60 min, 5 μL of Development Reagent B (invitrogen, diluted with TR-FRET dilution buffer) was added and allowed to react at room temperature in the shaker for 60 minutes.

Epidermal growth factor receptor, sequence (P00533 whole entry): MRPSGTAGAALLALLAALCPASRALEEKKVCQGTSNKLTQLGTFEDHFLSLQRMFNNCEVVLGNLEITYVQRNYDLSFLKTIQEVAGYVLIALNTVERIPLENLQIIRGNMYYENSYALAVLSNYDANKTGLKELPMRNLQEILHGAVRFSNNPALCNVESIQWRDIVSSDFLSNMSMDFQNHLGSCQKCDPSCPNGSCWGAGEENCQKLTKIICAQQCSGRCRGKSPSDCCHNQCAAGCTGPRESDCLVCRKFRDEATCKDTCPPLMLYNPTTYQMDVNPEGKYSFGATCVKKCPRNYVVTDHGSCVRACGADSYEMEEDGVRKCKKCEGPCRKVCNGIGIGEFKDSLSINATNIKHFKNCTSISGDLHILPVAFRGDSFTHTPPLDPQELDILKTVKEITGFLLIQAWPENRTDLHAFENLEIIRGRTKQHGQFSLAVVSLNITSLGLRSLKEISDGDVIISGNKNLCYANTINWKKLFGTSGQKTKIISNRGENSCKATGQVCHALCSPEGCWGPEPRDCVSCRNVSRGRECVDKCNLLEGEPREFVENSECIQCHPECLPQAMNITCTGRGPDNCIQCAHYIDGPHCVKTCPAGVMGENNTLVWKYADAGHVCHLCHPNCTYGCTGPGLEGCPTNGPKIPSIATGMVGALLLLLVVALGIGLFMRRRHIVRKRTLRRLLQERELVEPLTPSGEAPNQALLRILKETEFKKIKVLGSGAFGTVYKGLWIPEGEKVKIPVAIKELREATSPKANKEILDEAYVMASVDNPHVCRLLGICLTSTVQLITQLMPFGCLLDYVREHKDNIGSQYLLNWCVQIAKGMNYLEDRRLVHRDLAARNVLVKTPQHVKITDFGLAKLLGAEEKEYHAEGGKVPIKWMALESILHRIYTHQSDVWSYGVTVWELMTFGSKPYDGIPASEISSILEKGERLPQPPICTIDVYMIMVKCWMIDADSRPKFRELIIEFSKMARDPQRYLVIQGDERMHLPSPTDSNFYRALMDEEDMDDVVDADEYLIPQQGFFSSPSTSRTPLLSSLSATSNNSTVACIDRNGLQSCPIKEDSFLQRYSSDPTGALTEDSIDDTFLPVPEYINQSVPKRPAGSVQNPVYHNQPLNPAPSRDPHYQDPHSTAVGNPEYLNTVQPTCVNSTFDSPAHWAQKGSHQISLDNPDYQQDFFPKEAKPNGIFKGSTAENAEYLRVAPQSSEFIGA

| SMILES | IC50 |
| --- | --- |
| C=CC(=O)Nc1cc(Nc2nc(-c3cnn(C)c3)c3cc[nH]c3n2)c(OC)cc1OCCN(C)C [US9890168, Compound 10] | 578 nM |
| C=CC(=O)Nc1cc(Nc2nc(-c3cnn(C)c3)c3c(C)c[nH]c3n2)c(OC)cc1N1CCC(N(C)C)CC1 [US9890168, Compound 14] | > 1000 nM |
